{
  "source": "patent US9228121B2",
  "about": "“Process for the co-encapsulation of biocidally active compounds in clay minerals functionalized by nitrogen compounds” (Clariant S.A., priority 2010, dated 2016)",
  "key": {"[1]": {"test": "Tray test for leaching of biocides from paint film", "format": "physicochemical", "conditions": "paint with 1000 ppm biocidally active agent, 500 mL distilled water, detection limit 50 ppm", "description": "Additionally, the leaching of biocides was evaluated through a tray test in which 50 g of the a paint formulation containing 1000 ppm of biocidally active agent was applied in the bottom of a tray (23.5×38.0 cm) each time and the painting procedure was repeated twice. The film was dried at room temperature for seven days and then 500 mL of distilled water was added to the tray, after 1, 3, 6 and 24 hours a 10 mL sample were taken and analyzed for determination of the biocides."}, "Algae suspension": {"tested_on": "Algae suspension", "test": "Algae growth test on leached dry paint film", "format": "cell-based", "conditions": "ppm of BKC relatively to the paint, after leaching", "description": "Test specimens were prepared by application of two paint coats on watercolor paper ([…]) for each biocidal composition. After application, test specimens were dried during 7 days. After drying, coated substrates were cut in 30 mm squares. The test specimens were evaluated after a leaching test where the coated substrates were leached for 8 and 24 hours in 2 L containers of water with a flow rate such that there are 6 changes of the water in a period of 24 hours. Coated substrates were dried to room temperature for 48 hours and then evaluated in terms of microbiological effectiveness. The algicidal effect on dry film was evaluated as described bellow: Inoculums were prepared with a suspension of algae species (Trentepohlia odorata, Chlorella sp and Scenedesmus quadricauda) at concentration of 10^6 cells/mL. Coated substrates were placed on the center of a pre-poured Bold's Basal Medium agar plates. A thin coat of the algae suspension was applied over the plates. Plates were incubated with humidity ≧85%, 25° C. and cycle of 12 hours light and 12 hours darkness. For each biocidal composition the test was done three times. The algae growth on the sample surface was evaluated weekly for 3 weeks using the following scale: […]"}},
  "data": [
    {"substance": "C12/C14-alkyldimethyl benzyl ammonium chloride [Dodigen ® 2808]", "values": [
      {"measurement": "Tray test: biocide leached into water", "setting": "[1]; 1 hour", "value": 164, "unit": "ppm"},
      {"measurement": "Tray test: biocide leached into water", "setting": "[1]; 3 hours", "value": 177, "unit": "ppm"},
      {"measurement": "Tray test: biocide leached into water", "setting": "[1]; 6 hours", "value": 190, "unit": "ppm"},
      {"measurement": "Tray test: biocide leached into water", "setting": "[1]; 24 hours", "value": 224, "unit": "ppm"},
      {"measurement": "Effective concentration against algae (ppm relatively to the paint)", "setting": "Algae suspension", "value": ">>2000 ppm of BKC"},
      {"measurement": "Effective concentration against algae (ppm relatively to the paint)", "setting": "Algae suspension; listed as neat BKC", "value": "> 2000", "unit": "ppm"}
    ]}
  ]
}
